Assay results from ChEMBL document CHEMBL1687693, “Facile synthesis of a fluorescent cyclosporin a analogue to study cyclophilin 40 and cyclophilin 18 ligands” (ACS Med Chem Lett, 2010).
pKd, pKi: −log10 of the molar value.

Assays:
[1] = target: T1, Peptidyl-prolyl cis-trans isomerase A (Homo sapiens, UniProt P62937); assay: Inhibition of cyclosporin binding to Cyp18 by fluorescence polarization competition assay
[2] = target: T2, Peptidyl-prolyl cis-trans isomerase D (Homo sapiens, UniProt Q08752); assay: Inhibition of cyclosporin binding to Cyp40 by fluorescence polarization competition assay
T2 sequence (Q08752 whole entry): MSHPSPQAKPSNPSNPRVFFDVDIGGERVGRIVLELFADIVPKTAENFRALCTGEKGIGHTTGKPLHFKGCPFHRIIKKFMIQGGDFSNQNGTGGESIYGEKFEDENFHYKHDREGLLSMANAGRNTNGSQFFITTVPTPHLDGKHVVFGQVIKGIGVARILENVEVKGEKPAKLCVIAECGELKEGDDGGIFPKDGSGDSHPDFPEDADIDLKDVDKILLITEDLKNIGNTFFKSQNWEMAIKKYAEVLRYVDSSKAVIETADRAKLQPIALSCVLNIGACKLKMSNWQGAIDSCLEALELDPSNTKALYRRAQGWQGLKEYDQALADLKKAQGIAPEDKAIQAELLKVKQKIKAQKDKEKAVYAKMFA

[3] = target: T1, Peptidyl-prolyl cis-trans isomerase A; assay: Inhibition of Cyclophilin 18 PPIase activity
[4] = target: T2, Peptidyl-prolyl cis-trans isomerase D; assay: Inhibition of Cyclophilin 40 PPIase activity

T1 sequence (P62937 whole entry): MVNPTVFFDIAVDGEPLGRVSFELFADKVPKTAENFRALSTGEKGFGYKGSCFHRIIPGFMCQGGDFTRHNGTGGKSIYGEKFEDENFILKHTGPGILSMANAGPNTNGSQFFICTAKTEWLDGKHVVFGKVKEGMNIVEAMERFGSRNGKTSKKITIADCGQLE

Compound: CC[C@@H]1NC(=O)[C@H]([C@H](O)[C@H](C)C/C=C/c2ccc(CNC(=O)c3ccc(-c4c5ccc(=O)cc-5oc5cc(O)ccc45)c(C(=O)O)c3)cc2)N(C)C(=O)[C@H](C(C)C)N(C)C(=O)[C@H](CC(C)C)N(C)C(=O)[C@H](CC(C)C)N(C)C(=O)[C@@H](C)NC(=O)[C@H](C)NC(=O)[C@H](CC(C)C)N(C)C(=O)[C@H](C(C)C)NC(=O)[C@H](CC(C)C)N(C)C(=O)CN(C)C1=O
- pKd [1]: 7.92
- pKd [2]: 7.00
- pKi [3]: 6.97
- pKi [4]: 7.92
